In patent US6403576B1, “Antifungal and antiparasitic compounds” (priority 1998, dated 2002):
Values after ≈ are worked out from the molar mass of the structure shown. Where two headings read alike, the source gives them in different places.

What was measured:
[1] = system: Leishmania major promastigotes; conditions: cited from earlier work
[2] = rats; cited from earlier work
[3] = in vivo; cited from earlier work
[4] = system: Trichomonas vaginalis strain C1-NIH (ATCC #30001); experiment: Trichomonad MIC assay, 96-well, 48 h; type: cell-based
Procedure: (§1) Trichomonad In Vitro and in Vivo Drug Screening Methods.(a) In Vitro: Several strains of T. vaginalis are maintained, covering the spectrum of metronidazole resistance: CDC85 (highly resistant); RU384, RU383, IR78 (moderately resistant); NYH286, RU284, RU393, C1-NIH (sensitive). These strains are routinely cultivated in a non-defined medium incorporating tryptose, yeast extract, maltose and supplemented with 10% horse serum.
(§2) In in vitro drug studies, plant extracts are tested using a 96-well plate assay as described by Meingassner et al., (1978, Antimicrob Agents Chemother 13, 1-3). This method uses only 200 ul of medium/well and thus uses very little plant extract. Results (in triplicate) are presented as “Minimal Inhibitory Concentration” (MIC) the lowest concentration completely blocking growth (Meingassner et al., 1978, supra). This method is also useful in comparing susceptibility of various strains (Meingassner et al., 1978, supra; Yarlett et al., 1987, Mol Biochem Parasitol 24, 255-261). […] Since vaginal O2 tensions are 1/20th to ¼th of atmospheric (Wagner et al., 1978, Fertil Steril 30, 50-53), it is more physiological to do drug sensitivity testing under conditions approaching this.
(§3) The trichomonad screen consists of two human pathogenic Trichomonas vaginalis strains and a livestock parasite Tritrichomonas foetus. The T. vaginalis isolates include a metronidazole sensitive isolate (C1-NIH: ATCC 30001) and a strain highly resistant to metronidazole (CDC-085: ATCC 50143). […] Table 4 details data from the initial group of 19 primary extracts. […] The results to Dec. 31, 1997 appear in Table 5.

[5] = system: Trichomonas vaginalis CDC-085 (ATCC#50143); experiment: Trichomonad MIC assay, 96-well, 48 h; type: cell-based
Procedure: as §1, §2, §3

[6] = system: Tritrichomonas foetus KV-1; experiment: Trichomonad MIC assay, 96-well, 48 h; type: cell-based
Procedure: as §1, §2, §3

[7] = cited from earlier work
[8] = system: J-774 A.1 macrophages; conditions: 10 uM; not from mevalonate; cited from earlier work
[9] = 60 mg/day for 3 months; cited from earlier work

## Nc1ccc(S(=O)(=O)c2ccc(N)cc2)cc1 [Dapsone, 4,4′-diaminodiphenyl sulfone]
[1]
  reversibility of inhibition by p-aminobenzoate (PABA) folate or thymidine: not reversible

## CC/C(=C(/c1ccc(OCCN(C)C)cc1)c1cccc(O)c1)c1ccccc1 [Droloxifene]
[2]
  reduced total serum cholesterol compared to controls: 65-70%

## Nc1nc(N)nc(Nc2ccc([As]3SCC(CO)S3)cc2)n1 (stereo not shown) [Melarsoprol]
[3]
  incidence of cerebral episodes: 3-5%

## Cc1ncc([N+](=O)[O-])n1CCO [Metronidazole]
[4]; ATCC30001, Table 4, 48 hrs, read-out: MIC C1-HIH 48 hrs
  MIC: 3 µg/mL (≈ 17.5 µM)
[4]; ATCC30001, Table 5, new plant extracts, read-out: MIC C1-NIH
  MIC: 3 µg/mL (≈ 17.5 µM)
[5]; ATCC50143, Table 4, 48 hrs, metronidazole-resistant strain, read-out: MIC CDC-085 48 hrs
  MIC: 400 µg/mL (≈ 2340 µM)
[5]; ATCC50143, Table 5, new plant extracts, read-out: MIC CDC-085
  MIC: 400 µg/mL (≈ 2340 µM)
[6]; Table 4, 48 hrs, read-out: MIC KV-1 48 hrs
  MIC: 4 µg/mL (≈ 23.4 µM)
[6]; Table 5, new plant extracts, read-out: MIC KV1
  MIC: 3 µg/mL (≈ 17.5 µM)

## CC(=O)N1CCN(c2ccc(OCC3COC(Cn4ccnc4)(c4ccc(Cl)cc4Cl)O3)cc2)CC1 (stereo not shown) [ketoconazole]
[7]; 200 mg/day
  decreased plasma cholesterol from pretreatment baseline: 15%
[7]; 1200 mg/day
  decreased plasma cholesterol from pretreatment baseline: 27%

## CC(C)=CCC/C(C)=C/C=C/C(C)=C/C=C/C(C)=C/C=C/C=C(C)/C=C/C=C(C)/C=C/C=C(\C)CCC=C(C)C [lycopene]
[8]
  cholesterol synthesis inhibited from acetate: 73%
[9]
  decrease in plasma LDL cholesterol: 14%
